ChEMBL document CHEMBL1201862, “PubChem BioAssay data set” (2004)
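Five compound concentrations were applied to cells in 96-well plates for 48 hours; endpoints were derived by simple linear interpolation of the resulting dose-response curve. GI50: concentration for 50% inhibition of growth.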 Active and inactive are the calls of the source. No stated cut-off is given here; in the data, active = GI50 up to about 1.1 µM and inactive = higher.

Columns and labels:
Test in all cases: DTP human tumour cell line panel, 48 h
786-0 = test system: 786-0
A498 = test system: A498
A549 = test system: A549
BT-549 = test system: BT-549
CAKI-1 = test system: CAKI-1
CCRF-CEM = test system: CCRF-CEM
COLO 205 = test system: COLO 205
DU-145 = test system: DU-145
HCT-116 = test system: HCT-116
HCT-15 = test system: HCT-15
HL-60 = test system: HL-60
HOP-62 = test system: HOP-62
HT-29 = test system: HT-29
Hs-578T = test system: Hs-578T
IGROV-1 = test system: IGROV-1
K562 = test system: K562
KM12 = test system: KM12
LOX IMVI = test system: LOX IMVI
M14 = test system: M14
MCF7 = test system: MCF7
MDA-MB-231 = test system: MDA-MB-231
MDA-MB-435 = test system: MDA-MB-435
MDA-N = test system: MDA-N
MOLT-4 = test system: MOLT-4
Malme-3M = test system: Malme-3M
NCI-H226 = test system: NCI-H226
NCI-H23 = test system: NCI-H23
NCI-H460 = test system: NCI-H460
NCI/ADR-RES = test system: NCI/ADR-RES
OVCAR-3 = test system: OVCAR-3
OVCAR-4 = test system: OVCAR-4
OVCAR-5 = test system: OVCAR-5
OVCAR-8 = test system: OVCAR-8
PC-3 = test system: PC-3
RPMI-8226 = test system: RPMI-8226
RXF 393 = test system: RXF 393
SF-268 = test system: SF-268
SF-295 = test system: SF-295
SF-539 = test system: SF-539
SK-MEL-28 = test system: SK-MEL-28
SK-MEL-2 = test system: SK-MEL-2
SK-MEL-5 = test system: SK-MEL-5
SK-OV-3 = test system: SK-OV-3
SN12C = test system: SN12C
SNB-19 = test system: SNB-19
SNB-75 = test system: SNB-75
SR = test system: SR
SW-620 = test system: SW-620
TK-10 = test system: TK-10
U-251 = test system: U-251
UACC-257 = test system: UACC-257
UACC-62 = test system: UACC-62
UO-31 = test system: UO-31
ACHN = test system: ACHN
EKVX = test system: EKVX
HCC 2998 = test system: HCC 2998
HOP-92 = test system: HOP-92
NCI-H522 = test system: NCI-H522

Measured: GI50

COC(=O)c1c(O)ccc2c1c1c(n2Cc2ccccc2)C(=O)c2ccccc2C1
35.1 µM: HCT-15
inactive: 786-0 39.2 µM | A498 64.7 µM | A549 30.8 µM | BT-549 58.6 µM | CAKI-1 36.5 µM | CCRF-CEM 21.1 µM | COLO 205 15.4 µM | DU-145 99.3 µM | HCT-116 54.6 µM | HL-60 12.6 µM | HOP-62 > 100 µM | HT-29 18.4 µM | Hs-578T 86.5 µM | IGROV-1 40.6 µM | K562 2.84 µM | KM12 35.1 µM | LOX IMVI 26.2 µM | M14 52.4 µM | MCF7 25.4 µM | MDA-MB-231 39.7 µM | MDA-MB-435 33 µM | MDA-N 43.4 µM | MOLT-4 3.17 µM | Malme-3M 69.5 µM | NCI-H226 46.3 µM | NCI-H23 41.2 µM | NCI-H460 31.9 µM | NCI/ADR-RES 25.8 µM | OVCAR-3 43 µM | OVCAR-4 18.6 µM | OVCAR-8 39.7 µM | PC-3 20 µM | RPMI-8226 12.4 µM | RXF 393 21.3 µM | SF-268 39 µM | SF-295 27.1 µM | SF-539 26.2 µM | SK-MEL-28 44.6 µM | SK-MEL-2 43.6 µM | SK-MEL-5 50 µM | SK-OV-3 31.9 µM | SN12C 21.6 µM | SNB-19 95.5 µM | SNB-75 20.6 µM | SR 7.48 µM | SW-620 74 µM | TK-10 65.9 µM | U-251 38 µM | UACC-257 50.6 µM | UACC-62 36.9 µM | UO-31 49.4 µM
active: OVCAR-5 0.0282 µM

CC(=O)OCCOCn1c2c(c(=O)[nH]c1=O)CCC2
> 100 µM: HCT-15
inactive: 786-0 > 100 µM | A549 > 100 µM | ACHN > 100 µM | BT-549 > 100 µM | CAKI-1 > 100 µM | CCRF-CEM > 100 µM | COLO 205 > 100 µM | DU-145 > 100 µM | EKVX > 100 µM | HCC 2998 > 100 µM | HCT-116 > 100 µM | HL-60 > 100 µM | HOP-62 > 100 µM | HOP-92 > 100 µM | HT-29 > 100 µM | Hs-578T > 100 µM | IGROV-1 > 100 µM | K562 > 100 µM | KM12 > 100 µM | LOX IMVI > 100 µM | M14 > 100 µM | MCF7 > 100 µM | MDA-MB-231 > 100 µM | MDA-MB-435 > 100 µM | MDA-N > 100 µM | MOLT-4 > 100 µM | Malme-3M > 100 µM | NCI-H226 > 100 µM | NCI-H23 > 100 µM | NCI-H522 > 100 µM | OVCAR-3 > 100 µM | OVCAR-4 > 100 µM | OVCAR-5 > 100 µM | OVCAR-8 > 100 µM | PC-3 > 100 µM | RPMI-8226 > 100 µM | RXF 393 > 100 µM | SF-268 > 100 µM | SF-295 > 100 µM | SF-539 > 100 µM | SK-MEL-28 > 100 µM | SK-MEL-2 > 100 µM | SK-MEL-5 > 100 µM | SN12C > 100 µM | SNB-19 8.53 µM | SNB-75 > 100 µM | SR > 100 µM | SW-620 > 100 µM | TK-10 > 100 µM | U-251 > 100 µM | UACC-257 > 100 µM | UO-31 > 100 µM

CC(=O)O[C@@H]1C=C(C)[C@H](CBr)O[C@@]2(C)CC[C@H](Br)C(C)(C)[C@H]12
> 100 µM: HCT-15
inactive: 786-0 > 100 µM | A498 > 100 µM | A549 > 100 µM | ACHN > 100 µM | BT-549 > 100 µM | CAKI-1 > 100 µM | CCRF-CEM 19.4 µM | COLO 205 > 100 µM | DU-145 > 100 µM | EKVX > 100 µM | HCC 2998 > 100 µM | HCT-116 > 100 µM | HL-60 91.2 µM | HOP-62 > 100 µM | HOP-92 > 100 µM | HT-29 > 100 µM | Hs-578T > 100 µM | IGROV-1 > 100 µM | K562 25.3 µM | KM12 > 100 µM | LOX IMVI > 100 µM | M14 > 100 µM | MCF7 > 100 µM | MDA-MB-231 > 100 µM | MDA-MB-435 > 100 µM | MDA-N > 100 µM | MOLT-4 77.6 µM | NCI-H226 > 100 µM | NCI-H23 > 100 µM | NCI-H460 > 100 µM | NCI-H522 38.2 µM | NCI/ADR-RES 2.94 µM | OVCAR-4 > 100 µM | OVCAR-5 > 100 µM | OVCAR-8 > 100 µM | PC-3 > 100 µM | RPMI-8226 > 100 µM | RXF 393 > 100 µM | SF-268 > 100 µM | SF-295 > 100 µM | SF-539 > 100 µM | SK-MEL-28 > 100 µM | SK-MEL-2 > 100 µM | SK-MEL-5 > 100 µM | SK-OV-3 > 100 µM | SN12C > 100 µM | SNB-19 > 100 µM | SNB-75 > 100 µM | SR 41.2 µM | SW-620 > 100 µM | TK-10 > 100 µM | U-251 > 100 µM | UACC-257 > 100 µM | UACC-62 > 100 µM | UO-31 > 100 µM

CC(=O)O[C@H]1C(=O)[C@@]2(C)[C@H]([C@H](OC(=O)c3ccco3)[C@]3(O)C[C@H](OC(=O)[C@H](O)[C@@H](NC(=O)c4ccccc4)c4ccccc4)C(C)=C1C3(C)C)[C@]1(OC(C)=O)CO[C@@H]1C[C@@H]2O
15.1 µM: HCT-15
active: A549 0.518 µM | CCRF-CEM 0.05 µM | COLO 205 0.114 µM | DU-145 0.676 µM | HCC 2998 0.296 µM | HCT-116 0.059 µM | HL-60 0.0227 µM | HOP-62 0.676 µM | HT-29 0.0393 µM | Hs-578T 0.0608 µM | IGROV-1 0.251 µM | K562 0.078 µM | KM12 0.0834 µM | LOX IMVI 0.129 µM | M14 0.421 µM | MCF7 0.034 µM | MDA-MB-435 0.0165 µM | MDA-N 0.0127 µM | MOLT-4 0.114 µM | Malme-3M 0.119 µM | NCI-H226 0.429 µM | NCI-H23 0.412 µM | NCI-H460 0.164 µM | NCI-H522 0.309 µM | OVCAR-3 0.0612 µM | OVCAR-5 0.333 µM | OVCAR-8 0.273 µM | PC-3 0.12 µM | RPMI-8226 0.0189 µM | RXF 393 0.681 µM | SF-268 0.185 µM | SF-539 0.0356 µM | SK-MEL-2 0.0594 µM | SK-MEL-5 0.116 µM | SK-OV-3 0.287 µM | SN12C 0.308 µM | SNB-19 0.344 µM | SNB-75 0.134 µM | SR 0.0809 µM | SW-620 0.146 µM | U-251 0.125 µM | UACC-257 0.42 µM | UACC-62 0.277 µM
inactive: 786-0 1.16 µM | A498 3.81 µM | ACHN 7.98 µM | BT-549 2.81 µM | CAKI-1 14.3 µM | EKVX > 8.79 µM | MDA-MB-231 4.58 µM | NCI/ADR-RES > 25 µM | OVCAR-4 > 22.4 µM | SF-295 1.45 µM | TK-10 8.41 µM | UO-31 > 18.3 µM
